Structures can show the parent of a compound that is named as a salt.
How the values were obtained:
Kinase A and SpoOF = target: T1, Kinase A and SpoOF (Bacillus subtilis, UniProt P16497); experiment: Autophosphorylation of Kinase A and transphosphorylation of SpoOF assay (HPK in vitro assay); assay type: biochemical; conditions: inhibition of KinA autophosphorylation / SpoOF transphosphorylation, [32P]ATP, gel and phosphoimager
T1 sequence (P16497 1-606): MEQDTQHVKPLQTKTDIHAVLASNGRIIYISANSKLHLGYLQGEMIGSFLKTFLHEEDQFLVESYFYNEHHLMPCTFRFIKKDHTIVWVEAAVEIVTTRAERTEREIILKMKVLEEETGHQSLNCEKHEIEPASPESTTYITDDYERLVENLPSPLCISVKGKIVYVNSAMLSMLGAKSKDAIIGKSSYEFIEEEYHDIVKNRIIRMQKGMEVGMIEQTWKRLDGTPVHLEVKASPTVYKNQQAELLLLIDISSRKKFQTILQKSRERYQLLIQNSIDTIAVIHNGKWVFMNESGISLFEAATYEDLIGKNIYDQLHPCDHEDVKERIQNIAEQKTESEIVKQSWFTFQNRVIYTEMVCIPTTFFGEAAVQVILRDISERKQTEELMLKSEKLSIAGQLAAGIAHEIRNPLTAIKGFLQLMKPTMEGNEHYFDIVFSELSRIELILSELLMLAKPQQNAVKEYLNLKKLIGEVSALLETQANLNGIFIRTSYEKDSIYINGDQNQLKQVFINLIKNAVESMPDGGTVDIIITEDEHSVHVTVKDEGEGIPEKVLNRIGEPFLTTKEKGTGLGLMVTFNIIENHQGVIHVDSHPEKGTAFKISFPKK
Experimental: 1. Autophosphorylation of Kinase A and Transphosphorylation of SpoOF Assay
To study the effect of the compounds of the present invention on the signal transduction process in bacteria, the inhibiting effect of the compounds on the sporulation operon proteins Kinase A and SpoOF was examined. Specifically, the inhibition of autophosphorylation of Kinase A and the transphosphorylation of SpoOF was determined in the following assays. The SpoOF response regulator is the primary substrate for phosphorylation by the protein kinase, Kin A, involved in the sporulation process in bacteria. See D. Burbulys, K. A. Trach, J. A. Hoch, Cell, 64, 545-552 (1991).
The following stock reagents were either prepared and used promptly or stored at the indicated temperature:
8× Salts: 2M KCl (5 mL), 1M MgCl2 (800 mL), 1M CaCl2 (100 mL), 10 mg/mL phenylmethylsulfonyl fluoride (200 mL), 1M dithioreitol (50 mL), 0.25M Na2 EDTA (32 mL) and H2 O 3.82 mL (-20°C.)
5× Loading Dye: 0.5M TRIS-HCl-pH 6.8 (7.5 mL), 10% SDS (2 mL) 0.1% bromophenol blue (0.5 mL), 100% glycerol (3 mL) and 12.5M 2-mercaptoethanol (0.3 mL)
1-1.3 mg/mL KinA:15 mM TRIS-HCl, pH 8.0, 6 mM KCl; 4 mM 2-mercaptoethanol; 40% glycerol (-20 C.)
1 mg/mL Spo0F: 17.5 mM TRIS-HCl, pH 8.0; 0.7 mM KCl; 0.7 mM MgCl2; 0.7 mM CaCl2; 5 mM 2-mercaptoethanol; 30% Glycerol (-20°C.)
5% Stacking Gel: 40% 29:1 acrylamide:bis acrylamide (1.25 mL), 0.5M TRIS-HCl, pH 6.8 (2.5 mL), 10% SDS (0.1 mL), D-H2 O (6.15 mL) 10% ammonium persulfate (100 mL) and TEMED (25 mL)
SDS Running Buffer: TRIS-BASE (3.02 g), glycine (14.4 g) SDS (1 g), D-H2 O (to 1 L)
The reaction mixture was prepared from 8× Salts (87 μL), 1M TRIS, pH 8 (118 EL), 50% glycerol (63 μL), Spo0F (14.1 μL) and KinA (7.0 μL). Microcentrifuge tubes were charged with the reaction mixture (18.5 μL) and a 1.0 mM solution of the test compound in 5% DMSO (18.5 μL), and incubated for 15 min on ice. 100 mM ATP solution (3.0 μI, containing 625 μCi [^32 P]ATP) was added, and the mixture left for 10 minutes at room temperature. The reaction was quenched with 5× loading dye (10 μL per tube) and the samples were loaded on a prepared 5% Stacking Gel, or stored on dry ice until ready for use. The prepared wells were filled with SDS Running Buffer, samples were loaded into the wells, and 80 volts were applied to the gel until the dye front reached the bottom of the stacking gel. The voltage was then increased to 250 volts until electrophoresis was complete. Radioactive bands in the gel corresponding to phosphorylated KinA and SpoOF were imaged and quantitated with a phosphoimager.
If either enzyme was inhibited (as evidenced by the absence of labelled protein in the developed gel), an IC50 was calculated by running the assay with a range of inhibitor concentrations from 1 to 500 μM. After electrophoresis of the reaction mixtures, percent inhibition was determined by measuring the concentration of radioactive phosphorus with a phosphoimager and calculating the values using a software program (BioRad Molecular Analyst).

[1] = system: gram positive bacteria / Gram negative bacteria (Enterococcus faecalis, Staphylococcus aureus incl. methicillin resistant, Staphylococcus epidermidis …); experiment: MIC antimicrobial assay (NCCLS microdilution broth method); assay type: cell-based; conditions: MIC value range over the selected gram positive and gram negative test organisms; 35° C., 16-20 hours
Experimental: 2. MIC Antimicrobial Assay
The in vitro antimicrobial activity of the compounds was determined by the microdilution broth method following the test method from the National Committee for Laboratory Standards (NCCLS). This method is described in the NCCLS Document M7-A2, Vol.10, No. 8 "Methods for Dilution Antimicrobial Susceptibility Test for Bacteria that Grow Aerobically-Second Edition."
In this method two-fold serial dilutions of drug in cation supplemented Mueller-Hinton broth are added to wells in microdilution trays. The test organisms are prepared by adjusting the turbidity of actively growing broth cultures so that the final concentration of test organism after it is added to the wells is approximately 5×10^4 CFUs/well).
Following inoculation of the microdilution trays, the trays are incubated at 35° C. for 16-20 hours and then read. […] The amount of growth in the wells containing the test compound is compared with the amount of growth in the growth-control wells (no test compound) used in each tray. The following test organisms were utilized in the assay:
Enterococcus faecalis ATCC 29212
Enterococcus faecalis oc 3041
Enterococcus faecalis oc 2993
Methicillin resistant Staphylococcus aureus oc 2089
Methicillin resistant Staphylococcus aureus oc 667
Staphylococcus aureus ATCC 29213
Staphylococcus aureus ATCC 6538
Staphylococcus epidermidis oc 2603
Escherichia coli oc 2530 ss […]

Compound | IC50 (Kinase A and SpoOF) [µM] | MIC(G+/G-) [1]
NCCc1ccc(O[C@@H]2CC[C@H](c3ccccc3)c3ccccc32)cc1 (relative stereo) [Compound 6, 2-[4-(ClS-4-PHENYL-1,2,3,4-TETRAHYDRO-1-NAPHTHOXY)PHENYL]-ETHYLAMINE OXALATE] | 68.9 | 
NCCc1ccc(OCCC(c2ccccc2)c2ccccc2)cc1 [Compound 2, 2-[4-(3,3-DIPHENYLPROPOXY)PHENYL]ETHYLAMINE] | 31.25 | 
N=C(N)NCCc1ccc(OCCC(c2ccccc2)c2ccccc2)cc1 [Compound 3, 2-[4-(3,3-DIPHENYLPROPOXY)PHENYL]ETHYLGUANIDINE] | 21.5 | 
N=C(N)NCCc1ccc(OCCC2c3ccccc3-c3ccccc32)cc1 [Compound 4, {2-[4-[2-(9-FLUORENYL)ETHOXY]PHENYL]ETHYL}GUANIDINE] | 19.8 | 
N=C(N)NCc1cccc(OCCC(c2ccccc2)c2ccccc2)c1 [Compound 7, [3-(3,3-DIPHENYLPROPOXY)PHENYL]METHYLGUANIDINE BICARBONATE 0.5 HYDRATE] | 60 | 2-32
NCCc1ccc(OCC=C(c2ccccc2)c2ccccc2)cc1 [Compound 9, 2-[4-(3,3-DIPHENYL-2-PROPENOXY)PHENYL]ETHYLAMINE HYDROCHLORIDE·0.5HYDRATE] | 41 | 
NCCc1ccc(OC(c2ccccc2)c2ccccc2)cc1 [Compound 10, 2-{4-(2-DIPHENYL-2-METHOXY)PHENYL}ETHYLAMINE·HYDROCHLORIDE·HYDRATE] | 68 | 
C1=C(c2ccc(OCCC(c3ccccc3)c3ccccc3)cc2)CCNC1 [Compound 15, 4-[4-(3,3-DIPHENYLPROPYLOXY)PHENYL]-1,2,3,6-TETRAHYDROPYRIDINE·HYDROCHLORIDE 0.6 HYDRATE] | 45.6 | 
NCCc1ccc(OCCC(c2ccccc2)c2cccnc2)cc1 (stereo not drawn) [Compound 18, 2-[4-(3-PHENYL-3-(3-PYRIDYL)PROPOXY)PHENYL]ETHYLAMINE·OXALATE·0.1 HYDRATE] | > 100 | 
C1=C(c2ccc(OCCOC(c3ccccc3)c3ccccc3)cc2)CCNC1 [Compound 25, 4-{4-[2-(DIPHENYLMETHOXY) ETHOXY]PHENYL}-1, 2, 3, 6-TETRAHYDROPYRIDINE·MONOOXALATE 0.5 HYDRATE] | 313 | 

Continued, in another order:

IC50 (Kinase A and SpoOF) [µM] | Compound | MIC(G+/G-) [1]
42.9 | NCc1cccc(OCCC(c2ccccc2)c2ccccc2)c1 [Compound 8, [3-(3,3-DIPHENYLPROPOXY)PHENYL]METHYLAMINE·HYDROCHLORIDE·0.6 HYDRATE] | 
19.5 | NCCCc1ccc(OCC=C(c2ccccc2)c2ccccc2)cc1 [Compound 11, 3-[4-(3,3-DIPHENYL-2-PROPENOXY)PHENYL]PROPYLAMINE·OXALATE] | 
165 | O=CN1CCN(c2ccc(OCCC(c3ccccc3)c3ccccc3)cc2)CC1 [Compound 12, 1-FORMYL-4-[4-(3,3-DIPHENYLPROPOXY)PHENYL]PIPERAZINE·0.5 HYDRATE] | 
379.4 | O=C(CC(c1ccccc1)c1ccccc1)Nc1ccc(N2CCNCC2)cc1 [Compound 13, 4-[4-(3,3-DIPHENYLPROPANOYLAMINO) PHENYL]PIPERAZINE·0.5 HYDRATE] | 
130.4 | O=C(O)C(=O)O.c1ccc(C(CCOc2ccc(N3CCNCC3)cc2)c2ccccc2)cc1 [Compound 14, 4-[4-(3,3-DIPHENYLPROPOXY)PHENYL]PIPERAZINE OXALATE] | 
643.5 | Brc1ccc(OCCC(c2ccccc2)c2ccccc2)cc1 [Compound 17, 4-(3,3-DIPHENYLPROPOXY)BROMOBENZENE] | 
> 500 | NCCc1ccc(NC/C=C(/c2ccccc2)c2cccnc2)cc1 [Compound 20, Z-2-[4-(3-PHENYL-3-(3-PYRIDYL)PROPENYLAMINO)PHENYL]-ETHYLAMINE·OXALATE·0.2DIETHYL ETHER·0.15 ETHYL ACETATE·0.5 HYDRATE] | 
> 500 | NCCc1ccc(NC/C=C(\c2ccccc2)c2cccnc2)cc1 [Compound 21, E-2-[4-(3-PHENYL-3-(3-PYRIDYL)-2-PROPENYLAMINO)PHENYL]-ETHYLAMINE·OXALATE·0.33 ETHYL ACETATE·0.5 HYDRATE] | 
60 | N=C(N)NCCc1ccc(OCCN(Cc2ccccc2)Cc2ccccc2)cc1 [Compound 23, 2-[4-(2-[N,N'-DIBENZYLAMINO]-ETHOXY)PHENYL]ETHYLGUANIDINE] | 
769 | c1ccc(C(OCCOc2ccc(N3CCNCC3)cc2)c2ccccc2)cc1 [Compound 24, 4-[4-{2-(DIPHENYLMETHOXY)ETHOXY}PHENYL]PIPERAZINE·CARBONATE 2.0 HYDRATE] | 

From US5773469A, “Diaryl antimicrobial agents” (Ortho Pharmaceutical Corporation, priority 1996, dated 1998)
